Results taken from ChEMBL document CHEMBL4665709, “Rational Avoidance of Protease Cleavage Sites and Symmetrical End-Tagging Significantly Enhances the Stability and Therapeutic Potential of Antimicrobial Peptides” (J Med Chem, 2020).
Values after ≈ are worked out from the molar mass of the structure shown. Where a SMILES comes first, the peptide text is derived from it.

Assays:
[1] = Therapeutic index, ratio of MHC for human RBC to geometric mean of peptide MIC for Staphylococcus epidermidis ATCC 12228; assay type: toxicity; settings: human red blood cells (RBC), read-out: TI
[2] = tested on: Salmonella typhimurium; test: Antibacterial activity against Salmonella typhimurium 7731 after 18 to 24 hrs by CLSI-based broth microdilution method; assay type: functional, Salmonella enterica subsp. enterica serovar Typhimurium; settings: Salmonella enterica, time hrs 18-24
[3] = Cytotoxicity against mouse RAW264.7 cells assessed as cell viability at 128 uM by MTT assay relative to control; assay type: cell-based; settings: read-out: Activity
[4] = Therapeutic index, ratio of MHC for human RBC to geometric mean of peptide MIC for Streptococcus agalactiae H92; assay type: toxicity; settings: human red blood cells (RBC), read-out: TI
[5] = Therapeutic index, ratio of MHC for human RBC to geometric mean of peptide MIC for methicillin-resistant Staphylococcus aureus 43300; assay type: toxicity; settings: human red blood cells (RBC), read-out: TI
[6] = tested on: Staphylococcus aureus; test: Antibacterial activity against Staphylococcus aureus ATCC 29213 after 18 to 24 hrs by CLSI-based broth microdilution method; assay type: functional; settings: time hrs 18-24
[7] = tested on: Staphylococcus aureus; test: Antibacterial activity against Staphylococcus aureus 11011 after 18 to 24 hrs by CLSI-based broth microdilution method; assay type: functional; settings: time hrs 18-24
[8] = Antibacterial activity against Salmonella pullorum 7913 after 18 to 24 hrs by CLSI-based broth microdilution method; assay type: functional, Salmonella enterica subsp. enterica serovar Pullorum; settings: Salmonella enterica, time hrs 18-24
[9] = tested on: Salmonella enterica; test: Antibacterial activity against Salmonella choleraesuis 503 after 18 to 24 hrs by CLSI-based broth microdilution method; assay type: functional; settings: time hrs 18-24
[10] = tested on: Enterococcus faecalis; test: Antibacterial activity against Enterococcus faecalis ATCC 29212 after 18 to 24 hrs by CLSI-based broth microdilution method; assay type: functional; settings: time hrs 18-24
[11] = Hemolytic activity in human RBC assessed as hemolysis at 1 to 128 uM relative to control; assay type: ADME, cell-based, Erythrocyte; settings: human red blood cells (RBC), dose 1-128 µM, read-out: Activity
[12] = Cytotoxicity against HEK-293T cells assessed as cell viability at 128 uM by MTT assay relative to control; assay type: cell-based; settings: human, read-out: Activity
[13] = Therapeutic index, ratio of MHC for human RBC to geometric mean of peptide MIC for Escherichia coli UB1005; assay type: toxicity; settings: human red blood cells (RBC), read-out: TI
[14] = tested on: Escherichia coli; test: Antibacterial activity against Escherichia coli ATCC 25922 after 18 to 24 hrs by CLSI-based broth microdilution method; assay type: functional; settings: time hrs 18-24
[15] = Therapeutic index, ratio of MHC for human RBC to geometric mean of peptide MIC for Salmonella typhimurium 14028; assay type: toxicity; settings: human red blood cells (RBC), read-out: TI
[16] = Therapeutic index, ratio of MHC for human RBC to geometric mean of peptide MIC for Escherichia coli ATCC 25922; assay type: toxicity; settings: human red blood cells (RBC), read-out: TI
[17] = tested on: Staphylococcus aureus; test: Antibacterial activity against methicillin-resistant Staphylococcus aureus 43300 after 18 to 24 hrs by CLSI-based broth microdilution method; assay type: functional; settings: time hrs 18-24
[18] = tested on: Salmonella typhimurium; test: Antibacterial activity against Salmonella typhimurium 14028 after 18 to 24 hrs by CLSI-based broth microdilution method; assay type: functional, Salmonella enterica subsp. enterica serovar Typhimurium; settings: Salmonella enterica, time hrs 18-24
[19] = Therapeutic index, ratio of MHC for human RBC to geometric mean of peptide MIC for Staphylococcus aureus ATCC 29213; assay type: toxicity; settings: human red blood cells (RBC), read-out: TI
[20] = tested on: Staphylococcus epidermidis; test: Antibacterial activity against Staphylococcus epidermidis ATCC 12228 after 18 to 24 hrs by CLSI-based broth microdilution method; assay type: functional; settings: time hrs 18-24
[21] = tested on: Escherichia coli; test: Antibacterial activity against Escherichia coli UB1005 after 18 to 24 hrs by CLSI-based broth microdilution method; assay type: functional; settings: time hrs 18-24
[22] = tested on: Erythrocyte; test: Hemolytic activity in human RBC assessed as hemolysis; assay type: ADME, cell-based
[23] = Therapeutic index, ratio of MHC for human RBC to geometric mean of peptide MIC for Enterococcus faecalis ATCC 29212; assay type: toxicity; settings: human red blood cells (RBC), read-out: TI
[24] = Therapeutic index, ratio of MHC for human RBC to geometric mean of peptide MIC for Salmonella pullorum 7913; assay type: toxicity; settings: human red blood cells (RBC), read-out: TI
[25] = Therapeutic index, ratio of MHC for human RBC to geometric mean of peptide MIC for Staphylococcus aureus 11011; assay type: toxicity; settings: human red blood cells (RBC), read-out: TI
[26] = Therapeutic index, ratio of MHC for human RBC to geometric mean of peptide MIC for Salmonella choleraesuis 503; assay type: toxicity; settings: human red blood cells (RBC), read-out: TI
[27] = tested on: Streptococcus agalactiae; test: Antibacterial activity against Streptococcus agalactiae H92 after 18 to 24 hrs by CLSI-based broth microdilution method; assay type: functional; settings: time hrs 18-24
[28] = Therapeutic index, ratio of MHC for human RBC to geometric mean of peptide MIC for Salmonella typhimurium 7731; assay type: toxicity; settings: human red blood cells (RBC), read-out: TI

Row | SMILES | selectivity ratio [1] | MIC [2] [µM] | viability at 128 µM [3] [%] | selectivity ratio [4] | selectivity ratio [5] | MIC [6] [µM] | MIC [7] [µM] | MIC [8] [µM] | MIC [9] [µM] | MIC [10] [µM] | hemolysis at up to 128 µM [11] [%] | viability at 128 µM [12] [%] | selectivity ratio [13] | MIC [14] [µM] | selectivity ratio [15] | selectivity ratio [16] | MIC [17] [µM] | MIC [18] [µM] | selectivity ratio [19] | MIC [20] [µM] | other results
1 | CC[C@H](C)[C@H](N)C(=O)N[C@H](C(=O)N[C@H](C(=O)N[C@@H](CS)C(=O)N[C@@H](CCCNC(=N)N)C(=O)N[C@@H](CCCCN)C(=O)N1CCC[C@H]1C(=O)N[C@H](C(=O)N[C@H](C(=O)N[C@@H](CS)C(=O)N[C@@H](CCCNC(=N)N)C(=O)N[C@@H](CCCCN)C(=O)N1CCC[C@H]1C(=O)N[C@H](C(=O)N[C@H](C(=O)N[C@@H](CS)C(=O)N[C@@H](CCCNC(=N)N)C(=O)N[C@@H](CCCCN)C(=O)N1CCC[C@H]1C(=O)N[C@H](C(=O)N[C@H](C(=O)N[C@H](C(N)=O)[C@@H](C)CC)[C@@H](C)CC)[C@@H](C)CC)[C@@H](C)CC)[C@@H](C)CC)[C@@H](C)CC)[C@@H](C)CC)[C@@H](C)CC)[C@@H](C)CC (H-IIICRKPIICRKPIICRKPIII-NH2) | 2.52 | 8 (≈ 20.8 µg/mL) | > 90 | 2.52 | 2.52 | > 64 | > 64 | 16 (≈ 41.6 µg/mL) | 16 (≈ 41.6 µg/mL) | > 64 | < 5 | > 90 | 16 | 4 (≈ 10.4 µg/mL) | 16 | 16 | > 64 | 8 (≈ 20.8 µg/mL) | 2.52 | > 64 | MIC [21]: 4 µM (≈ 10.4 µg/mL); MHC [22]: > 128 µM; selectivity ratio [23]: 2.52; selectivity ratio [24]: 16; selectivity ratio [25]: 2.52; selectivity ratio [26]: 16; MIC [27]: 16 µM (≈ 41.6 µg/mL); selectivity ratio [28]: 16
2 | CC[C@H](C)[C@H](N)C(=O)N[C@H](C(=O)N[C@H](C(=O)N[C@@H](CS)C(=O)N[C@@H](CCCNC(=N)N)C(=O)N[C@@H](CCCCN)C(=O)N1CCC[C@H]1C(=O)N[C@H](C(=O)N[C@H](C(=O)N[C@@H](CS)C(=O)N[C@@H](CCCNC(=N)N)C(=O)N[C@@H](CCCCN)C(=O)N1CCC[C@H]1C(=O)N[C@H](C(=O)N[C@H](C(=O)N[C@H](C(N)=O)[C@@H](C)CC)[C@@H](C)CC)[C@@H](C)CC)[C@@H](C)CC)[C@@H](C)CC)[C@@H](C)CC)[C@@H](C)CC (H-IIICRKPIICRKPIII-NH2) | 2 | 32 (≈ 60.5 µg/mL) | > 90 | 2 | 2 | > 64 | > 64 | 32 (≈ 60.5 µg/mL) | 32 (≈ 60.5 µg/mL) | > 64 | < 5 | > 90 | 6.35 | 8 (≈ 15.1 µg/mL) | 6.35 | 6.35 | > 64 | 32 (≈ 60.5 µg/mL) | 2 | > 64 | MIC [21]: 8 µM (≈ 15.1 µg/mL); MHC [22]: > 128 µM; selectivity ratio [23]: 2; selectivity ratio [24]: 6.35; selectivity ratio [25]: 2; selectivity ratio [26]: 6.35; MIC [27]: 64 µM (≈ 121 µg/mL); selectivity ratio [28]: 6.35
3 | CC(C)[C@H](N)C(=O)N[C@@H](CS)C(=O)N[C@@H](CCCNC(=N)N)C(=O)N[C@@H](CCCCN)C(=O)N1CCC[C@H]1C(=O)N[C@H](C(=O)N[C@H](C(=O)N[C@@H](CS)C(=O)N[C@@H](CCCNC(=N)N)C(=O)N[C@@H](CCCCN)C(=O)N1CCC[C@H]1C(=O)N[C@H](C(N)=O)C(C)C)C(C)C)C(C)C (H-VCRKPVVCRKPV-NH2) | 2 | > 64 | > 90 | 2 | 2 | > 64 | > 64 | > 64 | > 64 | > 64 | < 5 | > 90 | 2 | > 64 | 2 | 2 | > 64 | > 64 | 2 | > 64 | MIC [21]: > 64 µM; MHC [22]: > 128 µM; selectivity ratio [23]: 2; selectivity ratio [24]: 2; selectivity ratio [25]: 2; selectivity ratio [26]: 2; MIC [27]: > 64 µM; selectivity ratio [28]: 2
